Source: patent US20030017148A1, “Prevention of insulin-dependent diabetes, complications thereof, or allograft rejection by inhibition of cyclooxygenase-2 activity” (Oklahoma Medical Research Foundation, priority 2000, published 2003)
pIC50: −log10 of the molar value. Values joined by “and” are separate entries in the source; they are usually repeats but may differ in a detail not shown here. Equal entries are not always repeated.

Legend:
STZ-induced IDDM [1] = assay: Multiple low-dose STZ-induced IDDM in CD-1 mice, PDTC treatment; assay type: in vivo; conditions: for Blood Glucose Level: STZ 40 mg/Kg 5 days, PDTC 150 mg/Kg daily, 100 mg/Kg from day 7, 11 treatments
Description: Method. CD-1 mice were divided into two groups (6 mice/group). Group 1 was treated with STZ (40 mg/Kg dissolved in cold sodium citrate buffer, pH 4.5) for 5 consecutive days. Group 2 was treated with STZ as described and received daily treatments of PDTC (150 mg/Kg, dissolved in physiological saline) starting from day 1 of STZ treatment. The PDTC dose was reduced to 100 mg/Kg at day 7 of the treatment. A total of 11 daily treatments of PDTC were given to the mice in this group (up to day 11 from the start of STZ treatment). Blood glucose levels were periodically determined in these mice.

[2] = system: high-dose STZ-induced IDDM; assay: Single high-dose STZ-induced IDDM in mice, NS-398 pre-treatment; assay type: in vivo; conditions: 48 h after single STZ 220 mg/Kg; NS-398 10 mg/Kg 15 min prior to STZ
Description: Animal treatment: Ball/c or CD-1 mice (male, 6-8 weeks) from Charles-River (Indianapolis, Ind.) were used in this study. STZ was dissolved in citrate buffer pH 4.5 and was administered within 10 minutes of its dissolution. Animals receiving NS-398 treatment were injected with this compound 15 min prior to STZ treatment. Since STZ is both toxic and carcinogenic, extreme caution was practiced in its handling. NS-398 was dissolved in dimethylsulfoxide (DMSO). […] To control for the effect of DMSO, mice in the STZ group received 40 μl injections of DMSO for the same number of days as the STZ+NS-398 group. At different time intervals after the treatments, tail tip blood was drawn and used for the measurement of blood glucose levels and/or glycated hemoglobin. [table] […] PBS (control group) for 5 consecutive days. […] The STZ group received only STZ injections.

STZ-induced IDDM [3] = assay: Multiple low-dose STZ-induced IDDM in mice, NS-398 treatment; assay type: in vivo
Description: Chemicals: Streptozotocin was obtained from Sigma Chemical Company (St. Louis, Mo.). NS-398 was obtained from Cayman Chemicals (Ann Arbor, Mich.). Determination of blood glucose level was performed using the glucose oxidase kit obtained from Sigma Chemical Co. Total glycated hemoglobin (Hb A1) was measured using a kit from Sigma. Animal treatment: Ball/c or CD-1 mice (male, 6-8 weeks) from Charles-River (Indianapolis, Ind.) were used in this study. STZ was dissolved in citrate buffer pH 4.5 and was administered within 10 minutes of its dissolution. Animals receiving NS-398 treatment were injected with this compound 15 min prior to STZ treatment. Since STZ is both toxic and carcinogenic, extreme caution was practiced in its handling. NS-398 was dissolved in dimethylsulfoxide (DMSO). […] To control for the effect of DMSO, mice in the STZ group received 40 μl injections of DMSO for the same number of days as the STZ+NS-398 group. At different time intervals after the treatments, tail tip blood was drawn and used for the measurement of blood glucose levels and/or glycated hemoglobin. [table] […] PBS (control group) for 5 consecutive days. […] The STZ group received only STZ injections. […] For histological studies, 35 days following the treatments (multiple low-dose STZ±NS-398), mice were anaesthetized and perfused with 4% paraformaldehyde and pancreata were removed and post-fixed for an additional day. The paraffin sections (6 μ) were stained with Gambier's aldehyde fuchsia for the identification of pancreatic β cells. Untreated mice were used as controls for these studies. Statistical analyses: Statistical analyses of the data were performed using one way analysis of variance (Anoa) followed by Student's t-test. In order to determine whether NS-398 treatment would protect the animals against the diabetogenic action of STZ, blood glucose level, and the level of glycated hemoglobin (a marker of chronic hyperglycemia) were monitored in the mice treated with STZ in the absence and presence of NS-398. Histological studies were also performed on the pancreata of the treated animals in order to obtain morphological information on the status of the islet β cells.

[4] = in vivo; cited from earlier work
COX-2 = target: T1, COX-2 (Homo sapiens, UniProt P35354); conditions: cellular systems; cited from earlier work
T1 sequence (P35354 18-604): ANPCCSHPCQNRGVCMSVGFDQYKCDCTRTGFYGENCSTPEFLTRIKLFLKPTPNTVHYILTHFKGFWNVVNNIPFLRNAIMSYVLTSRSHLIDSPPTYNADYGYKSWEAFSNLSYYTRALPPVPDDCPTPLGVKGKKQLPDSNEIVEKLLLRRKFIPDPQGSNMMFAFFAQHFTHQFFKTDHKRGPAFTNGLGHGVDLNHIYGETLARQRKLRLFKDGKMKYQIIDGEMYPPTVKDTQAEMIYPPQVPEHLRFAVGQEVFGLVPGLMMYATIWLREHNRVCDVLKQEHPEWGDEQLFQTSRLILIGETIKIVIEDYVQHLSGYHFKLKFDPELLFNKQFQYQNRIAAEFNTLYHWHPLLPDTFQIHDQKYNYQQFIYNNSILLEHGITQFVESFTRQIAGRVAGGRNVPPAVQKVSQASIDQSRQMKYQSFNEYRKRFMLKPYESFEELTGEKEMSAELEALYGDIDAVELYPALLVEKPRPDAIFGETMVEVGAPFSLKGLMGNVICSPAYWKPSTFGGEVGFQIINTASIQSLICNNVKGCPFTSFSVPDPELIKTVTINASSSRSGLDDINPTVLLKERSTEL

[5] = system: IDDM in low-dose STZ model; conditions: cited from earlier work
[6] = Tolerability of indomethacin in STZ-treated mice; conditions: indomethacin 3 mg/Kg/day with STZ 40 mg/Kg/day for 5 days; 5 mice/group
Description: In experiment 4, two groups of mice (5 mice/group) were treated with STZ (40 mg/Kg/day for 5 days). One group of these mice received daily treatments of indomethacin (3 mg/Kg/day). Indomethacin was dissolved in DMSO and an injection volume of 40 μl was used.

CN(N=O)C(=O)N[C@H]1C(O)O[C@H](CO)[C@@H](O)[C@@H]1O (mixture of isomers) [STZ, Streptozotocin]
Blood Glucose Level (STZ-induced IDDM [1]; day 11 of treatment): 249.0 ± 50.2 mg/dL | Blood Glucose Level (STZ-induced IDDM [1]; day 19 of treatment): 446.7 mg/dL and 446.7 ± 106.1 mg/dL | Blood Glucose Level [2]: 311.1 ± 80.7 mg/dL | Blood Glucose Level (STZ-induced IDDM [3]; 30 days following completion of STZ treatment, STZ 40 mg/Kg/day 5 days, NS-398 5 mg/Kg/day ip from day 1, continued 6 days after STZ, mean ± SD): 304.0 ± 91.6 mg/dL | glycated hemoglobin level (FIG. 2) (STZ-induced IDDM [3]; 30 days following treatment, STZ 40 mg/Kg/day 5 days ± NS-398): significantly elevated levels of glycated hemoglobin | histology of pancreatic islet β cells (aldehyde fuchsin, FIG. 3) (STZ-induced IDDM [3]; 35 days following multiple low-dose STZ ± NS-398): nearly completely destroyed | blood glucose level (FIG. 1) (STZ-induced IDDM [3]; experiment 1: STZ 40 mg/Kg/day ip 5 days, NS-398 10 mg/Kg/day, 11 injections from day 1, followed up to 28 days after cessation of NS-398): progressive rise in the blood glucose concentration

CS(=O)(=O)Nc1cc2c(cc1Oc1ccc(F)cc1F)C(=O)CC2 [Flosulide]
ID50 [4]: < 0.1 mg/kg

Cc1nc(C2CCCCC2)c(-c2ccc(S(N)(=O)=O)c(F)c2)o1 [JTE-522, 4-(4-cyclohexyl-2-methyloxazol-5-yl)-2-Fluorobenzene Sulfonamide]
pIC50 (COX-2): 7.82

CS(=O)(=O)Nc1cc2c(cc1Sc1ccc(F)cc1F)C(=O)CC2 [L-745,337, 5-methane sulfonamido-6-(2,4-difluorothiophenyl)-1-indanone]
ED50 [4]: 2 mg/kg | ID50 [4]: 0.4 mg/kg

Cc1ccc(-c2ncc(Cl)cc2-c2ccc(S(C)(=O)=O)cc2)cn1 [L-791,456, 5-Chloro-3(4-methylsulfonyl) phenyl-2-(2-methyl-5-pyridinyl) pyridine]
ED50 [4]: 0.6 mg/kg

CC(C)(C)[N+]([O-])=Cc1ccccc1 [PBN, phenyl N-tert-butylnitrone]
protection against IDDM [5]: protect against IDDM

CCSc1nnc(-c2cc(C(C)(C)C)c(O)c(C(C)(C)C)c2)s1 [PD164387]
ED40 [4]: 7.1 mg/kg

S=C(S)N1CCCC1 [PDTC, Pyrrolidine Dithiocarbamate]
protection from STZ-induced IDDM (STZ-induced IDDM [1]; PDTC daily from day 1 of STZ treatment): protected from STZ-induced IDDM | Blood Glucose Level (STZ-induced IDDM [1]; day 11 of treatment): 190.8 ± 23.2 mg/dL | Blood Glucose Level (STZ-induced IDDM [1]; day 19 of treatment): 199.6 mg/dL and 199.6 ± 35.6 mg/dL

CS(=O)(=O)c1ccc(C2=C(c3ccc(F)cc3)CCC2)cc1 [SC-57666, 1-[2-(4-Fluorophenyl)cyclopenten-1-yl]-4-(methylsulfonyl) benzene]
ED50 [4]: low

COc1ccc2c(c1)c(CC(=O)O)c(C)n2C(=O)c1ccc(Cl)cc1 [indomethacin]
mice that died during or following treatment [6]: Four out of five
